Data as given in patent US4833144A, “2-Alkylsulfinyl-4(3H)-quinazolinone derivatives and pharmaceutical compositions” (Nisshin Flour Milling Co., Ltd., priority 1987, dated 1989).
Like-named read-outs stand apart in the source and are kept apart here.

How the values were obtained:
[1] = tested on: indomethacin induced ulcer; assay: antiulcer activity: suppression of indomethacin induced ulcer in mice; format: in vivo, ddY series male mice; details: po, read-out: Suppression rate of indomethacin induced ulcer, 100 mg/kg, p.o.
Procedure: The antiulcer activity of the compounds of this invention was determined by the following method. Four-week-old ddY series male mice were used as the test animals after they were fasted for 24 hours. Each test compound suspended in a 1% gum arabic solution was administerd to the stomach of each mouse at a dose of 100 mg/kg, and then, after 30 minutes, 20 mg/kg of indomethacin was administered orally. Four hours after the administration of indomethacin, the stomach of mouse was extirpated and the length of ulcers was measured. Then, the ulcer index was determined by the total sum of the scores as calculated in Table 1.

[2] = acute oral toxicity (LD50); details: in vivo
[3] = mouse, 100 mg/kg p.o. 30 min before 20 mg/kg indomethacin, ulcer index 4 h later, vs control group

CC(C)Cn1c([S+]([O-])Cc2ccccn2)nc2ccccc2c1=O (stereo not drawn) [3-isobutyl-2-(2-pyridylmethylsulfinyl)-4(3H)-quinazolinone]
inhibition in vivo at 100 mg/kg [1, 3]: 40%

O=c1c2ccccc2nc([S+]([O-])Cc2ccccn2)n1-c1cccc2ccccc12 (stereo not drawn) [3-(1-naphthyl)-2-(2-pyridylmethylsulfinyl)-4(3H)-quinazolinone]
inhibition in vivo at 100 mg/kg [1, 3]: 39%

COc1ccc(-n2c([S+]([O-])Cc3nccc(OC)c3C)nc3ccc(C)cc3c2=O)cc1 (stereo not drawn) [2-[(4-methoxy-3-methylpyridin-2-yl)methylsulfinyl]-3-(4-methoxyphenyl)-6-methyl-4(3H)-quinazolinone]
inhibition in vivo at 100 mg/kg [1, 3]: 51%

Cc1ccnc(C[S+]([O-])c2nc3ccccc3c(=O)n2-c2ccccc2)c1 (stereo not drawn) [2-[(4-methylpyridin-2-yl)methylsulfinyl]-3-phenyl-4(3H)-quinazolinone]
inhibition in vivo at 100 mg/kg [1, 3]: 68%

CN/C(=N/CCSCc1nc[nH]c1C)NC#N [Cimetidine, reference compound]
inhibition in vivo at 100 mg/kg ([1]; Mus musculus, 4 h): 40%

COc1cc(C[S+]([O-])c2nc3ccccc3c(=O)n2-c2ccccc2)ncc1C (stereo not drawn) [2-[(4-methoxy-5-methylpyridin-2-yl)methylsulfinyl]-3-phenyl-4(3H)-quinazolinone]
inhibition in vivo at 100 mg/kg [1, 3]: 82%

COc1cc(C[S+]([O-])c2nc3ccc(C)cc3c(=O)n2-c2ccccc2)ncc1C (stereo not drawn) [2-[(4-methoxy-5-methylpyridine-2-yl)methylsulfinyl]-6-methyl-3-phenyl-4(3H)-quinazolinone]
inhibition in vivo at 100 mg/kg [1, 3]: 59%

O=c1c2ccccc2nc([S+]([O-])Cc2ccccn2)n1-c1ccccc1 (stereo not drawn) [3-Phenyl-2-(2-pyridylmethylsulfinyl)-4(3H)-quinazolinone]
LD50 [2]: > 3000 mg/kg | inhibition in vivo at 100 mg/kg [1, 3]: 83%

O=c1c2ccccc2nc([S+]([O-])Cc2ccncc2)n1-c1ccccc1 (stereo not drawn) [3-Phenyl-2-(4-pyridylmethylsulfinyl)-4(3H)-quinazolinone]
inhibition in vivo at 100 mg/kg [1, 3]: 69%

O=c1c2ccccc2nc([S+]([O-])Cc2cccnc2)n1-c1ccccc1 (stereo not drawn) [3-phenyl-2-(3-pyridylmethylsulfinyl)-4(3H)-quinazolinone]
inhibition in vivo at 100 mg/kg [1, 3]: 55%

COc1cccc(-n2c([S+]([O-])Cc3ccccn3)nc3ccccc3c2=O)c1 (stereo not drawn) [3-(3-methoxyphenyl)-2-(2-pyridylmethylsulfinyl)-4(3H)-quinazolinone]
inhibition in vivo at 100 mg/kg [1, 3]: 73%

O=c1c2ccccc2nc([S+]([O-])Cc2ccccn2)n1-c1ccccc1Cl (stereo not drawn) [3-(2-chlorophenyl)-2-(2-pyridylmethylsulfinyl)-4(3H)-quinazolinone]
inhibition in vivo at 100 mg/kg [1, 3]: 56%

Cc1cccc2nc([S+]([O-])Cc3ccccn3)n(-c3ccccc3)c(=O)c12 (stereo not drawn) [5-methyl-3-phenyl-2-(2-pyridylmethylsulfinyl)-4(3H)-quinazolinone]
inhibition in vivo at 100 mg/kg [1, 3]: 77%

Cc1ccc(-n2c([S+]([O-])Cc3ccccn3)nc3ccccc3c2=O)cc1 (stereo not drawn) [3-(4-methylphenyl)-2-(2-pyridylmethylsulfinyl)-4(3H)-quinazolinone]
inhibition in vivo at 100 mg/kg [1, 3]: 73%

COc1ccc(-n2c([S+]([O-])Cc3ccccn3)nc3ccccc3c2=O)cc1 (stereo not drawn) [3-(4-methoxyphenyl)-2-(2-pyridylmethylsulfinyl)-4(3H)-quinazolinone]
inhibition in vivo at 100 mg/kg [1, 3]: 72%

Cc1ccc2nc([S+]([O-])Cc3ccccn3)n(-c3ccccc3)c(=O)c2c1 (stereo not drawn) [6-methyl-3-phenyl-2-(2-pyridylmethylsulfinyl)-4(3H)-quinazolinone]
inhibition in vivo at 100 mg/kg [1, 3]: 56%

O=c1c2ccccc2nc([S+]([O-])Cc2ccnc3ccccc23)n1-c1ccccc1 (stereo not drawn) [3-phenyl-2-(4-quinolylmethylsulfinyl)-4(3H)-quinazolinone]
inhibition in vivo at 100 mg/kg [1, 3]: 64%
